{"source": "paper PMC2999418", "about": "“Biological Activity and Binding Site Characteristics of the PA1b Entomotoxin on Insects from Different Orders” (Journal of Insect Science, 2007)", "key": {"Mamestra brassicae": {"tested_on": "Mamestra brassicae", "test": "Cabbage moth larval toxicity test on artificial medium with toxin", "assay_type": "in vivo", "conditions": "1000 µg PA1b per g of diet, larvae L1 to pupa; data not shown", "procedure": "The cabbage moth Mamestra brassicae (Lepidoptera) was grown on the artificial medium described by Poitout and Bues ([1974]). PA1b was added to this media and the mortality of larvae (from L1 to pupa) was monitored daily.\n(§1) All toxicity assays were carried out using a mixture of PA1b isoforms (98% purity by HPLC). All tests were performed on at least 30 insects for assays and for control test (without toxin), except for the three aphid species (50 insects) and for Trichogramma (more than 300 eggs by assays). When adults were used, the insects were synchronized at the imaginal molt. The statistical analyses were performed using the JMP software (SAS, Grégy-sur-Yerres FRA)."}, "[1]": {"target": "PA1b binding protein on membrane extracts", "test": "125I-PA1b binding (competition) on insect membrane extracts", "design": "species or system Acyrthosiphon pisum", "conditions": "A. pisum membrane extracts; competition with purified 3741 isoform", "procedure": "(§2) The isolation of membrane proteins for binding studies was performed as described by Gressent et al. ([2003]). For PA1b degradation tests, insect extracts were prepared as follows, 1 g of insects were ground with a mortar and pestle in liquid nitrogen. The resulting powder was resuspended in 2 ml of extraction buffer (20 mM Tris-HCl pH 8; 0.25 M sucrose; 2 mM MgCl2). The slurry was centrifuged for 2 min at 1000 g, and the supernatant was stored at -2O°C until required. All the operations were performed at 4°C.\n(§3) The peptidic toxin PA1b-3471 isoform was labelled with I^125 to a specific radioactivity of about 900 Ci.mmor^-1, and then used for binding studies with membrane extracts, according to Gressent et al. ([2003]).\n(§4) PA1b binding activity was present in all insect species, except for the resistant weevil strains and the pea specific pest Bruchus pisorum, regardless of the sensitivity or insensitivity of these insects to PA1b toxicity, as evaluated from our insect bioassays. […] The relative abundance of the binding sites was also slightly different in this group of species, varying from 10 pmol/mg of protein for T. pretiosum to a maximum of 79 pmol/mg of protein for M. persicae."}, "[2]": {"target": "PA1b binding protein on membrane extracts", "test": "125I-PA1b binding (competition) on insect membrane extracts", "design": "species or system Mamestra brassicae", "conditions": "M. brassicae membrane extracts; competition with purified 3741 isoform", "procedure": "as §2, §3, §4"}, "[3]": {"target": "PA1b binding protein on membrane extracts", "test": "125I-PA1b binding (competition) on insect membrane extracts", "design": "species or system Trichogramma pretiosum", "conditions": "T. pretiosum membrane extracts; competition with purified 3741 isoform", "procedure": "as §2, §3, §4"}, "[4]": {"target": "PA1b binding protein on membrane extracts", "test": "125I-PA1b binding (competition) on insect membrane extracts", "design": "species or system Ephestia kuehniella", "conditions": "E. kuehniella membrane extracts; competition with purified 3741 isoform", "procedure": "as §2, §3, §4"}, "[5]": {"tested_on": "M. brassicae protein extracts", "test": "PA1b degradation assay with total insect protein extract", "assay_type": "in vitro ADME, Mamestra brassicae", "conditions": "200 µg M. brassicae (L3) total protein extract, 10 µg PA1b, pH 3 to 9, 30°C, one night incubation; C18 HPLC; data not shown", "procedure": "as §2\nPA1b degradation assays were performed using 10 µg of peptide (PA1b isoform mixture) in a final volume of 100 µl buffer. […]\nFor all assays, after a one night incubation, 150 µl of methanol were added to the mixture and incubated for 60 min at 4°C. […] PA1b peptide isoforms were detected by their absorbance at 210 nm, quantified by the measurement of the peak area and with reference to known quantities of pure peptide isoform used as standards."}, "Trichogramma pretiosum": {"tested_on": "Trichogramma pretiosum", "test": "Trichogramma development from eggs to adults on artificial diet with toxin", "assay_type": "in vivo", "conditions": "PA1b added to artificial diet; no difference in developmental times compared to control", "procedure": "Trichogramma pretiosium. T191 (Hymenoptera) were grown using the artificial diet described in Grenier et al. ([1998]). The toxin was incorporated into the diet, and the development of insects was monitored from eggs to adults.\nas §1"}, "Harmonia axyridis": {"tested_on": "Harmonia axyridis", "test": "Ladybeetle development and survival on artificial diet supplemented with toxin", "assay_type": "in vivo", "conditions": "250 µg/g of food", "procedure": "The ladybeetle Harmonia axyridis (Coleoptera) was grown on a pork liver-based artificial diet (Specty et al., unpublished results), and tests were performed using a diet supplemented with the toxin. The development was monitored from L3 up to the pupal stage.\nas §1\nFigure 1. Effects of PA1b on the lady beetle H. axyridis. Tests were done with artificial diet supplemented with the toxin (250 µg/g), and the development of the insects was monitored daily. First bar, control insects; second bar, tested insects. P, Pupae; pP, Pre-pupae; L4,4th instar larvae; L3, 3rd instar larvae."}, "Sitophilus zeamais": {"tested_on": "Sitophilus zeamais", "test": "Toxicity assay on cereal weevil adults, toxin in food, survival analysis", "assay_type": "in vivo", "conditions": "S. zeamais LS strain, day 7, confidence interval in brackets", "procedure": "(§5) Cereal weevils (Sitophilus oryzae, S. zeamais and S. granarius, Coleoptera) were reared for more than 10 years in our laboratory on wheat seeds at […] 70% RH. Resistant strains were reared on pea seeds. Tests and survival analysis were performed on adults, as fully described in Louis et al ([2004]).\nas §1"}, "Sitophilus granarius": {"tested_on": "Sitophilus granarius", "test": "Toxicity assay on cereal weevil adults, toxin in food, survival analysis", "assay_type": "in vivo", "conditions": "S. granarius Brayard strain", "procedure": "as §5, §1"}, "Sitophilus oryzae": {"tested_on": "Sitophilus oryzae", "test": "Toxicity assay on cereal weevil adults, toxin in food, survival analysis", "assay_type": "in vivo", "conditions": "dose-response, PA1b isoform mixture in food, confidence interval in brackets", "procedure": "as §5, §1"}}}
{"sequence": "ASCNGVCSPFEMPPCGTSACRCIPVGLVIGYCR NPSG (bicyclic or more) [PA1b, plant peptide of 37 amino acids purified from pea (Pisum sativum) seeds; entomotoxic cystine-knot peptide with three disulfide bonds]", "values": [{"measurement": "effect on mortality, development and ecdysis", "setting": "Mamestra brassicae", "result": "no effect"}, {"measurement": "Kd", "setting": "[1]", "result": 58, "unit": "nM"}, {"measurement": "Kd", "setting": "[2]", "result": 20, "unit": "nM"}, {"measurement": "Kd", "setting": "[3]", "result": 56, "unit": "nM"}, {"measurement": "Kd", "setting": "[4]", "result": 20, "unit": "nM"}, {"measurement": "recovered PA1b after incubation with insect proteins versus heat-denatured control", "setting": "[5]", "result": "without any difference between control and test assays"}, {"measurement": "growth and development from eggs to adults", "setting": "Trichogramma pretiosum", "result": "normal growth"}, {"measurement": "share of survivors that reached the pupal stage", "setting": "Harmonia axyridis; by day 12", "result": "half"}, {"measurement": "insects that reached the L4 stage", "setting": "Harmonia axyridis; started on L3 larvae, after three days (all control insects reached L4)", "result": 30, "unit": "%"}, {"measurement": "survival", "setting": "Harmonia axyridis; started on L3 larvae, by day 12 (control 75%)", "result": 15, "unit": "%"}, {"measurement": "LC50", "setting": "Sitophilus zeamais", "result": "234 [125–630] µg/g"}, {"measurement": "mortality", "setting": "Sitophilus granarius; highest tested dose 1000 µg/g", "result": 27, "unit": "%"}, {"measurement": "LD50 estimated by extrapolation", "setting": "Sitophilus granarius; extrapolated, without confidence interval", "result": "ca. 3500 µg/g"}, {"measurement": "LD50 at day 7", "setting": "Sitophilus oryzae; S. oryzae strain Bouriz, adults", "result": "501 [281–984] µg/g"}, {"measurement": "LD50 at day 7", "setting": "Sitophilus oryzae; S. oryzae strain Bénin, adults", "result": "446 [251–1584] µg/g"}, {"measurement": "LD50 at day 7", "setting": "Sitophilus oryzae; S. oryzae strain WAA42, adults", "result": "489 [290–1318] µg/g"}]}
